*1 amine or outer side, *2 acyl side, *3 side chain or, on linkers, in order; H or OH if unused. Bridges are numbered along the chain shown (N, C = ends). Roman numbers before positions name the chains, in order. Side-chain parts run from the residue outwards. [ ]: non-standard residue; d: D form. The star is where a group is joined. C20 diacid = O=C(O)CCCCCCCCCCCCCCCCCCC(=O)*; C18 diacid = O=C(O)CCCCCCCCCCCCCCCCC(=O)*; γGlu = O=C(O)[C@H](CCC(=O)[*:2])N[*:1]; εLys = N[C@@H](CCCCN[*:1])C(=O)[*:2]; pGlu = O=C1CC[C@@H](C(=O)O)N1; αMeL = CC(C)C[C@](C)(N)C(=O)O; AEEA = NCCOCCOCC(=O)O; Aib = CC(C)(N)C(=O)O
Tests used:
Type in all cases: cell-based
[1] = molecular target: T1, human CRHR2 (Homo sapiens, UniProt Q13324); assay: Human CRHR2 cAMP assay (HTRF) in HEK293 cells stably expressing human CRHR2; conditions: HEK293 cells overexpressing human CRHR2; relative EC50, maximum 10 nM human UCN2; mean ± SE; read-out: hCRHR2 cAMP EC50 (pM, ± SE)
T1 construct: expressed in transfected cells
T1 sequence (Q13324 1-438 isoform Q13324-2): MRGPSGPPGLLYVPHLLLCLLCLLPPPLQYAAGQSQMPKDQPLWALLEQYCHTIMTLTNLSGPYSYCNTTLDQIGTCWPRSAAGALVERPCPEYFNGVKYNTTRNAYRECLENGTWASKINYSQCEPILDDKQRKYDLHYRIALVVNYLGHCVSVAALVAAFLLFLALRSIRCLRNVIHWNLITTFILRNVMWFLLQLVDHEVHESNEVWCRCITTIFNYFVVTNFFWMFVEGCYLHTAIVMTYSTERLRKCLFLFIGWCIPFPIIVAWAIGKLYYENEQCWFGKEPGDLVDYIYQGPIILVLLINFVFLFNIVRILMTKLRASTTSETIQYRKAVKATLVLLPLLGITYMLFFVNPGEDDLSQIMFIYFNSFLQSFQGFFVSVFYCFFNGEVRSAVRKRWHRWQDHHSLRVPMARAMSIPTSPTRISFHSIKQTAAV
Method in brief: (§1)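 Gs-coupled receptor activation was followed as intracellular cAMP in stably transfected HEK293 cells, 25,000 (CRHR1) or 5,000 (CRHR2) per well, with 0.25 mM IBMX present. Stimulation lasted 1 h at 37° C for CRHR1 and 30 min at room temperature for CRHR2.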

[2] = molecular target: T2, human CRHR1 (Homo sapiens, UniProt P34998); assay: Human CRHR1 cAMP assay (HTRF) in HEK293 cells stably expressing human CRHR1; conditions: HEK293 cells overexpressing human CRHR1; relative EC50, maximum 66 nM human UCN1; mean ± SE; read-out: hCRHR1 cAMP EC50 (pM, ± SE)
T2 construct: expressed in transfected cells
T2 sequence (P34998 24-415): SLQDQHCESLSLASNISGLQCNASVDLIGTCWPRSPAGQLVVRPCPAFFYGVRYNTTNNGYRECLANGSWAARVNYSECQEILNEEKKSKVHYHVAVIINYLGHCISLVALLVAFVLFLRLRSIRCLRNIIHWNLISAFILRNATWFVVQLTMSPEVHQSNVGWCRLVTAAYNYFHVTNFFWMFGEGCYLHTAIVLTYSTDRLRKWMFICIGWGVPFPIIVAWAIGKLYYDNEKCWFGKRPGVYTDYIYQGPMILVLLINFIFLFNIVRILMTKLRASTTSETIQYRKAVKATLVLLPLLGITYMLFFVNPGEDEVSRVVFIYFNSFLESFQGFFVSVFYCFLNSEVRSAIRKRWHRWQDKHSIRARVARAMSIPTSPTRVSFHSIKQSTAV
Method in brief: as §1

[3] = tested on: MHC-II presented peptides on human dendritic cells; assay: MAPPS assay (MHC-Associated Peptide Proteomics)
Experimental: MAPPS profiles the MHC-II presented peptides on human dendritic cells treated with tested molecules. CD14+ cells, isolated from the PBMCs of normal human donors, were cultured and differentiated into immature DCs by incubation with IL-4 and GM-CSF. On day 4, culture media was replaced with fresh media containing tested molecules. On day 5, LPS was added to transform the cells into mature DCs. On day 6, cells were lysed in RIPA buffer with protease inhibitors. Immunoprecipitation of MHC-II complexes were performed using biotinylated anti-MHC-II antibody coupled to streptavidin beads. The bound complex was eluted and filtered. The isolated MHC-II peptides were analyzed by a mass spectrometer. Peptide identifications were generated by an internal proteomics pipeline using search algorithms with no enzyme and a bovine/human database with test sequences appended to the database. A KNIME workflow was used to process the identification files from the samples. Peptides identified from the test articles were aligned against the parent sequence of the test molecule. The output was used to determine the percentage of donors displaying MHC-II peptides from regions of the test molecule. Polypeptides comprising SEQ ID NOs:54, 49, 50, 29, 41, 45, 1, 22, 25 were tested in the MAPPs assay. […] Depending on the donors, up to three major clusters were observed, each slightly shifted from the others, altogether spanning residues 1-33.

I: Ac-GSPSIVTS[αMeL]DVPT[Aib][αMeL]LQKILEQERAEKARQQAKEAAEILAQV-NH2 / II: {C20 diacid}-PPPPPP[γGlu] (amide I:33-II:C) [SEQ ID NO: 15, Ac-GSPSIVTS αMeL DVPT Aib αMeL LQKILEQERAEKARQQAK(γE-PPPPPP-CO-(CH2)18-CO2H)EAAEILAQV-NH2]
EC50 [1]: 11.3 ± 0.4 pM
EC50 [2]: > 1e+07 pM

[pGlu]GSPSGIVTS[αMeL]DVPT[Aib][αMeL]LQKILEQERAEKARQQAK([γGlu-AEEA-εLys-C18 diacid])EAAEILAQV-NH2 [SEQ ID NO: 24, Pyr-GSPSGIVTS αMeL DVPT Aib αMeL LQKILEQERAEKARQQAK(γE-(2-[2-(2-Amino-ethoxy)-ethoxy]-acetyl)-ϵK-CO-(CH2)16-CO2H)EAAEILAQV-NH2]
EC50 [1]: 21.7 ± 3.6 pM
EC50 [2]: > 1e+07 pM

[pGlu]GSPSGIVTS[αMeL]DVPT[Aib][αMeL]LQKILEQERAEKARQQAKEAAEILAQV-NH2 [SEQ ID NO: 23]
EC50 [1]: 28.9 ± 1.2 pM
EC50 [2]: > 1e+07 pM

{C18 diacid-εLys-AEEA-γGlu}-GSPSIVTS[αMeL]DVPT[Aib][αMeL]LQKILEQERAEKARQQATEAAEILAQV-NH2 [SEQ ID NO: 28]
EC50 [1]: 12.8 ± 2 pM
EC50 [2]: > 1e+07 pM

{C20 diacid}-K[AEEA][γGlu]GSPSIVTS[αMeL]DVPT[Aib][αMeL]LQKILEQERAEKARQQATEAAEILAQV-NH2 [SEQ ID NO: 26]
EC50 [1]: 6.9 ± 0.7 pM
EC50 [2]: > 1e+07 pM

γGlu-GPSIVTS[αMeL]D[dV]PI[Aib][αMeL]LQIKLEQERAEKARQQAK([AEEA-AEEA-γGlu-C20 diacid])ENTEILAQV-NH2 [SEQ ID NO: 45, γE-GPSIVTS αMeL D (D-Val) PI Aib αMeL LQIKLEQERAEKARQQAK((2-[2-(2-Amino-ethoxy)-ethoxy]-acetyl)2-γE-CO-(CH2)18-CO2H)ENTEILAQV-NH2]
EC50 [1]: 9 ± 3.6 pM
EC50 [2]: 3.7e+06 pM
MAPPS Assay >10 donors with diverse MHC ([3]; donors displaying MHC-II peptides / donors tested): 0/20
peptides displayed on MHC-II complexes ([3]; human dendritic cells from normal donors): no peptides displayed on MHC-II complexes
immunogenicity compared with SEQ ID NO:54 ([3]; in the MAPPs assay and/or the T cell proliferation assay): substantial improvements in immunogenicity over a compound comprising SEQ ID NO:54
MAPPS Assay >10 donors with diverse MHC ([3]; percentage of donors displaying MHC-II peptides): 0%
